Laboratory results: US10188634B2, “3-(3H-imidazo[4,5-C]pyridin-2-yl)-1 H-pyrazolo[4,3-B]pyridines and therapeutic uses thereof” (Samumed, LLC, priority 2015, dated 2019)
pEC50: −log10 of the molar value.

Columns and labels:
Format in all cases: cell-based
SW480 colon cancer cells = assay: Cell viability assay (CellTiter-Blue) in SW480 colon cancer cells; details: Homo sapiens, 96 h; for inhibition at 10 µM: four days, CellTiter-Blue, read-out: percent inhibition at 10 μM (given for EC50 of >10 μM); for pEC50: four days incubation, CellTiter-Blue cell viability
Procedure, shortened: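 About 2×10^3 SW480 colon cancer cells per well were exposed to compound (8-point 1:3 dilutions, 10 μM to 0.004 μM) for four days at 37 °C. Viability was read by CellTiter-Blue resazurin reduction (~3 h, Ex 560/Em 590). EC50 from nonlinear regression; above 10 μM, % inhibition at 10 μM is reported.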

[1] = system: LL29 cells (primary human fibroblasts derived from IPF patients) treated with TGF-β1, α-smooth muscle actin; assay: Inhibition of the fibrotic process: αSMA staining in TGF-β1 treated primary human fibroblasts from IPF patients (LL29 cells); details: Fibroblast, 96 h; for pEC50: LL29 cells treated with TGF-β1 (20 ng/mL), 4 days; for inhibition at 10 µM: LL29 cells treated with TGF-β1, 4 days, read-out: percent inhibition in brackets (given for EC50 >10 μM)
IL-6 in THP-1 cells = assay: Inhibition of IL-6 in LPS-stimulated THP-1 human monocyte cells (HTRF); details: IL-6 HTRF; for pEC50: 500 ng/mL LPS, 22 hours; for inhibition at 10 µM: LPS, read-out: percent inhibition in brackets (given for EC50 >10 μM)
Procedure, shortened: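 THP-1 cells, serum-reduced (1% FBS) for 24 h, were exposed to compound (1:3, 10-point series from 10 μM; 0.1% DMSO) for 2 h, then 500 ng/mL LPS for 22 h at 37° C. Secreted IL-6 measured by HTRF (665/620 ratio), normalised to DMSO; EC50 by four-parameter fit, else % inhibition at 10 μM.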

Structure (SMILES)	pEC50 (SW480 colon cancer cells)	pEC50 (IL-6 in THP-1 cells)	inhibition at 10 µM (SW480 colon cancer cells) [%]	pEC50 [1]	inhibition at 10 µM [1] [%]	inhibition at 10 µM (IL-6 in THP-1 cells) [%]
O=C(Nc1cncc(-c2ccc3[nH]nc(-c4nc5c(-c6ccccn6)cncc5[nH]4)c3n2)c1)c1ccccc1 [Compound 151, N-(5-(3-(7-(Pyridin-2-yl)-3H-imidazo[4,5-c]pyridin-2-yl)-1H-pyrazolo[4,3-b]pyridin-5-yl)pyridin-3-yl)benzamide]	< 5.00	< 5.00	16.9	< 5.00	38.8	20.3
CCCCC(=O)Nc1cncc(-c2ccc3[nH]nc(-c4nc5c(-c6ccccn6)cncc5[nH]4)c3n2)c1 [Compound 159, N-(5-(3-(7-(Pyridin-2-yl)-3H-imidazo[4,5-c]pyridin-2-yl)-1H-pyrazolo[4,3-b]pyridin-5-yl)pyridin-3-yl)pentanamide]	< 5.00	< 5.00	9	< 5.00	0.4	28.2
CCC(=O)Nc1cncc(-c2ccc3[nH]nc(-c4nc5c(N6CCCCC6)cncc5[nH]4)c3n2)c1 [Compound 169, N-(5-(3-(7-(Piperidin-1-yl)-3H-imidazo[4,5-c]pyridin-2-yl)-1H-pyrazolo[4,3-b]pyridin-5-yl)pyridin-3-yl)propionamide]	< 5.00	< 5.00	2.2	< 5.00	3	25.6
CN(C)Cc1cncc(-c2ccc3[nH]nc(-c4nc5c(N6CCCCC6)cncc5[nH]4)c3n2)c1 [Compound 181, N,N-Dimethyl-1-(5-(3-(7-(piperidin-1-yl)-3H-imidazo[4,5-c]pyridin-2-yl)-1H-pyrazolo[4,3-b]pyridin-5-yl)pyridin-3-yl)methanamine]	5.11	5.22		5.10		

Now from value to compound, other results behind:

pEC50 (SW480 colon cancer cells)	pEC50 (IL-6 in THP-1 cells)	Structure (SMILES)	inhibition at 10 µM (SW480 colon cancer cells) [%]	pEC50 [1]	inhibition at 10 µM [1] [%]	inhibition at 10 µM (IL-6 in THP-1 cells) [%]
< 5.00	< 5.00	Cc1ccncc1-c1ccc2[nH]nc(-c3nc4c(-c5ccncc5)cncc4[nH]3)c2n1 [Compound 117, 5-(4-Methylpyridin-3-yl)-3-(7-(pyridin-4-yl)-3H-imidazo[4,5-c]pyridin-2-yl)-1H-pyrazolo[4,3-b]pyridine]	2.8	< 5.00	0	43.5
< 5.00	< 6.00	CCCC(=O)Nc1cncc(-c2ccc3[nH]nc(-c4nc5c(-c6ccncc6)cncc5[nH]4)c3n2)c1 [Compound 129, N-(5-(3-(7-(Pyridin-4-yl)-3H-imidazo[4,5-c]pyridin-2-yl)-1H-pyrazolo[4,3-b]pyridin-5-yl)pyridin-3-yl)butyramide]	2.8	< 5.00	0	18.7
< 5.00	< 5.00	c1cc(-c2ccc3[nH]nc(-c4nc5c(-c6ccncc6)cncc5[nH]4)c3n2)ccn1 [Compound 130, 5-(pyridin-4-yl)-3-(7-(pyridin-4-yl)-3H-imidazo[4,5-c]pyridin-2-yl)-1H-pyrazolo[4,3-b]pyridine]	0	< 5.00	11	29.3
< 5.00	< 6.00	O=C(Nc1cncc(-c2ccc3[nH]nc(-c4nc5c(-c6ccncc6)cncc5[nH]4)c3n2)c1)C1CCCCC1 [Compound 135, N-(5-(3-(7-(pyridin-4-yl)-3H-imidazo[4,5-c]pyridin-2-yl)-1H-pyrazolo[4,3-b]pyridin-5-yl)pyridin-3-yl)cyclohexanecarboxamide]	1.4	< 5.00	0	26.6
< 5.00	< 5.00	CCNCc1cncc(-c2ccc3[nH]nc(-c4nc5c(-c6ccccn6)cncc5[nH]4)c3n2)c1 [Compound 146, N-((5-(3-(7-(Pyridin-2-yl)-3H-imidazo[4,5-c]pyridin-2-yl)-1H-pyrazolo[4,3-b]pyridin-5-yl)pyridin-3-yl)methyl)ethanamine]	26.9	5.73		20.1
